Reference: US11155586B2, “Cystine knot scaffold platform” (Genentech, Inc., priority 2015, dated 2021)
Positions of bridges follow the written chain, without caps; N, C: chain ends. Residues, ends and D or L forms follow the SMILES beside them.

Key:
[1] = test system: hVEGF-A mutants (Y21A, K48A, Q89A, F17A/M81A); assay: SPR binding assay, hVEGF-A mutants; design: species or system human; kd: unit not given here
Procedure: (§1) Depending on the format of the assay either a streptavidin sensor (SA) or a dextran-coated (CM5) sensor was utilized as described below.
(§2) For use with the SA sensor, VEGF-A was first biotinylated (no more than 2 biotin/VEGF-A) by incubating the protein with EZ-link NHS-PEG4-Biotin (Pierce) in a 1:1.5 molar ratio respectively, in PBS for 2 hours on ice. Reaction was then quenched by addition of 10 molar excess of Glycine pH 8.0 and the sample was buffer exchanged into PBS using an Amicon 0.5 mL 3000 MWCO ultra-centrifugal filters (EMD Millipore). The biotinylation state of the protein was verified by LC-MS analysis. Biotinylated VEGF-A was then captured on the surface until a resonance unit (RU) signal of about ˜400. For immobilization of VEGF-A on CM5 sensor, the surface was first activated with a mixture of N-ethyl-N′-(3-dimethylaminopropyl)carbodiimide hydrochloride and N-hydroxysuccinimide (EDC/NHS) according to the supplier instructions. VEGF-A was then diluted into coupling buffer (0.1 M Acetate Buffer, pH 5.0) and injected until the signal reached about ˜400 RU followed by a wash with 1 M ethanolamine pH 8.0 to quench remaining activated sites.
(§3) Following the capture step, a series of the peptide concentrations were prepared in HBS-EP buffer with matching DMSO concentrations to 0.1% and injected at a flow rate of […]. The resulting sensorgrams were then analyzed using a 1:1 binding model to obtain kinetic data and affinities using Scrubber 2.0 (BioLogic Software).
The binding interface of VEGF_CKP9.54.90 on VEGF-A overlaps with that of the natural receptors and G6.31 antibody (FIGS. 7 and 8). […] However, K48A mutation enhanced the binding of VEGF_CKP9.54.90 by ˜2-3 fold, a behavior that is similar to that observed with the G6.31 antibody (Fuh et al. (2006) J. Biol. Chem. 281, 6625-6631).

hVEGF(8-109) = target: T1, hVEGF(8-109) (Homo sapiens, UniProt P15692); assay: Spot phage ELISA; assay type: binding
T1 construct: hVEGF(8-109) or BSA were coated on 384-well MAXISORP™ immunoplates
T1 sequence (P15692 214-315): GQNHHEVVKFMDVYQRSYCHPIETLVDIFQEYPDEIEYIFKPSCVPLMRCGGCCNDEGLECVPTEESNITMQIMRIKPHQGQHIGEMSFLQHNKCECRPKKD
In short: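 After four selection rounds, phage supernatants from single clones (1:3 in PBT) were added to wells coated with hVEGF(8-109) or BSA; binding detected with anti-M13-HRP and TMB. Positive clones had target signal more than 3 times BSA background.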

VEGF human 165 = target: T2, VEGF human 165 (Homo sapiens, UniProt P15692); assay: SPR binding assay; details: for ka / kd: human 165, Table 30
T2 sequence (P15692 27-191 isoform P15692-4): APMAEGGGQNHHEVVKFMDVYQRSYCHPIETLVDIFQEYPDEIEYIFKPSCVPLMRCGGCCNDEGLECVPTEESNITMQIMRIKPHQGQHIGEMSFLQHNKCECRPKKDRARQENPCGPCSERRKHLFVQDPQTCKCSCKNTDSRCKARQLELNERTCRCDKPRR
Procedure: as §1, §2, §3

VEGF mouse 164 = target: T3, VEGF mouse 164 (Mus musculus, UniProt Q00731); assay: SPR binding assay; details: for ka / kd: mouse 164, Table 30
T3 sequence (Q00731 27-190 isoform Q00731-2): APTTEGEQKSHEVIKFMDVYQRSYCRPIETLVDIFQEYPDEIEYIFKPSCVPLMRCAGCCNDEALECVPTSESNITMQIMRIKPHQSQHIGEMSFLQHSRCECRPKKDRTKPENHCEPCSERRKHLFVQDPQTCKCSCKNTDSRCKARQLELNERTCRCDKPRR
Procedure: as §1, §2, §3

rat VEGF-A = target: T4, rat VEGF-A (Rattus norvegicus, UniProt P16612); assay: SPR binding assay; details: for ka / kd: rat, Table 30
T4 sequence (P16612 27-139 limits assumed): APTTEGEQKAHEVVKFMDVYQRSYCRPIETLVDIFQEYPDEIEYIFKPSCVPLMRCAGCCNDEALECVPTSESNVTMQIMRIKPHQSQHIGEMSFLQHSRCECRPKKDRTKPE
Procedure: as §1, §2, §3

rabbit VEGF-A = target: T5, rabbit VEGF-A (Oryctolagus cuniculus, UniProt G1T1L9); assay: SPR binding assay; details: for ka / kd: rabbit, Table 30
T5 sequence (G1T1L9 1-398): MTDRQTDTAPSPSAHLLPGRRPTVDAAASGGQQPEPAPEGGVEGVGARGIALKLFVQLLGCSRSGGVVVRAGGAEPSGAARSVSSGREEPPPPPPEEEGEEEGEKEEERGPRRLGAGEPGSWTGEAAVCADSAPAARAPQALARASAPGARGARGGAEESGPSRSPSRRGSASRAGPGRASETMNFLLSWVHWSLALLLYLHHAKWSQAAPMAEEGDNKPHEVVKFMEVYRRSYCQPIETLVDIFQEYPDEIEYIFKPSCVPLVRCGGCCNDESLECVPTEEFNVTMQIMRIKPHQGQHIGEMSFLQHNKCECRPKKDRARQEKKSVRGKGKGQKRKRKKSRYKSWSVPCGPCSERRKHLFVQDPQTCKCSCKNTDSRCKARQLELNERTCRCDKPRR
Procedure: as §1, §2, §3

trypsin = assay: Resistance to trypsin digestion; assay type: in vitro ADME; details: for resistance to trypsin digestion: FIG. 4
Procedure: Approximately 20% of VEGF_CKP9.54.90 was cleaved at Arg13 within loop 2 after 24 h incubation with trypsin at 37° C.

Row | SMILES | Kd ([1]; hVEGF-A mutant K48A) [nM] | ka ([1]; hVEGF-A mutant K48A) | kd ([1]; hVEGF-A mutant K48A) | Kd ([1]; hVEGF-A mutant Q89A) [nM] | ka ([1]; hVEGF-A mutant Q89A) | kd ([1]; hVEGF-A mutant Q89A) | Kd ([1]; hVEGF-A mutant Y21A) [nM] | ka ([1]; hVEGF-A mutant Y21A) | kd ([1]; hVEGF-A mutant Y21A) | ka (VEGF human 165) | kd (VEGF human 165) | ka (VEGF mouse 164) | kd (VEGF mouse 164) | ka (rat VEGF-A) | kd (rat VEGF-A) | ka (rabbit VEGF-A) | kd (rabbit VEGF-A) | resistance to trypsin digestion (trypsin) | other results
1 | CC[C@H](C)[C@@H]1NC(=O)[C@H](CC(N)=O)NC(=O)[C@@H](NC(=O)CN)CSSC[C@@H](C(=O)N[C@H](C(=O)N[C@H]2CSSC[C@@H](C(=O)NCC(=O)O)NC(=O)[C@H](CO)NC(=O)[C@H](CCC(N)=O)NC(=O)[C@H](Cc3ccc(O)cc3)NC(=O)[C@H](Cc3ccc(O)cc3)NC(=O)[C@H](CCC(N)=O)NC2=O)C(C)C)NC(=O)CNC(=O)[C@H](C)NC(=O)[C@H](CC(C)C)NC(=O)[C@@H]2CSSC[C@H](NC(=O)CNC(=O)[C@H](Cc3c[nH]c4ccccc34)NC(=O)[C@H](Cc3ccccc3)NC(=O)[C@@H]3CCCN3C(=O)[C@H](CC(C)C)NC(=O)[C@H](CCSC)NC1=O)C(=O)NCC(=O)N[C@@H](CCCNC(=N)N)C(=O)N[C@@H](CC(=O)O)C(=O)N[C@@H](Cc1ccccc1)C(=O)N[C@@H](CCC(=O)O)C(=O)N2 [VEGF_CKP9.54.90] (H-GCNIMLPFWGCGRDFECLAGCVCQYYQSCG-OH; disulfide 2-21, 11-17, 23-29; N-terminus and C-terminus assumed) | 0.19 | 6.04 × 10^7 | 0.0116 | 8.8 | 1.71 × 10^7 | 0.1458 | 3.5 | 3.72 × 10^7 | 0.1202 | 1.58 × 10^7 | 1.33 × 10^−2 | 8.71 × 10^6 | 1.01 × 10^−2 | 1.72 × 10^7 | 1.35 × 10^−2 | 5.15 × 10^7 | 6.75 × 10^−2 | maintain a degree of resistance | binding to VEGF-A mutant F17A/M81A ([1]; F17A/M81A, relative to wild type VEGF-A): reduced binding; enhancement of binding by K48A mutation ([1]; K48A, relative to wild type VEGF-A): 2-3 fold; binding to VEGF-A mutant Q89A ([1]; Q89A, relative to wild type VEGF-A): reduced binding; binding to VEGF-A mutant Y21A ([1]; Y21A, relative to wild type VEGF-A): reduced binding; S/N (signal to noise ratio as compared to BSA control) (hVEGF(8-109); Table 26): 29.5; ELISA (hVEGF(8-109); loop 2 variants based on 9.54 framework, Table 26): 2.3; Kd (VEGF human 165): 0.89 nM; Kd (VEGF mouse 164): 1.31 nM; Kd (rat VEGF-A): 0.9 nM; Kd (rabbit VEGF-A): 1.14 nM; metabolised at 24 h (trypsin; 24 h incubation with trypsin at 37° C., read-out: fraction cleaved at Arg13 within loop 2): ~20%
2 | CC[C@H](C)[C@@H]1NC(=O)[C@H](CC(=O)O)NC(=O)[C@@H]2CCCN2C(=O)CNC(=O)[C@@H]2CSSC[C@H](NC(=O)[C@H](CC(=O)O)NC1=O)C(=O)N[C@@H](CC(C)C)C(=O)N[C@@H](C)C(=O)NCC(=O)N[C@H](C(=O)N[C@H](C(=O)N[C@H]1CSSC[C@@H](C(=O)NCC(=O)O)NC(=O)[C@H](CO)NC(=O)[C@H](CC(N)=O)NC(=O)[C@H](Cc3ccc(O)cc3)NC(=O)[C@H](Cc3c[nH]c4ccccc34)NC(=O)[C@H](Cc3c[nH]cn3)NC1=O)C(C)C)CSSC[C@H](NC(=O)CN)C(=O)N[C@@H](CC(=O)O)C(=O)N[C@@H](C(C)C)C(=O)N[C@@H](CCSC)C(=O)N[C@@H](CCC(N)=O)C(=O)N1CCC[C@H]1C(=O)N[C@@H](Cc1ccc(O)cc1)C(=O)N[C@@H](Cc1c[nH]c3ccccc13)C(=O)NCC(=O)N2 [VEGF_CKP9.63.12] (H-GCDVMQPYWGCGPDIDCLAGCVCHWYNSCG-OH; disulfide 2-21, 11-17, 23-29 (inferred); N-terminus and C-terminus assumed) | 0.33 | 5.30 × 10^7 | 0.017 | 36.5 | 7.43 × 10^6 | 0.47 | 9.84 | 1.99 × 10^7 | 1.48 × 10^−1 | 4.65 × 10^6 | 2.01 × 10^−2 | 1.04 × 10^6 | 1.32 × 10^−2 | 6.44 × 10^6 | 2.59 × 10^−2 | 6.91 × 10^6 | 1.78 × 10^−2 | maintain a degree of resistance | S/N (signal to noise ratio as compared to BSA control) (hVEGF(8-109); Table 27): 39.9; ELISA (hVEGF(8-109); loop 2 variants based on VEGF_CKP9.63 framework, Table 27): 2.6
